Assay results published in PMC9395488, “First-in-human study of IM156, a novel potent biguanide oxidative phosphorylation (OXPHOS) inhibitor, in patients with advanced solid tumors” (Investigational New Drugs, 2022).

Tested on: patients with advanced solid tumors
Assay: First-in-human phase 1 dose-escalation study: safety, DLTs, adverse events
Type: in vivo
Text: This multicenter first-in-human dose-escalation phase 1 study (clinicaltrials.gov identifier: NCT03272256) was designed to determine the MTD or RP2D and to evaluate the safety and tolerability of IM156. Secondary endpoints included PK characteristics, efficacy assessment (objective response rate [ORR], disease control rate [DCR], duration of response [DoR] and progression-free survival [PFS]). Furthermore, exploratory objectives included identification and profiling of IM156 metabolites, evaluations of exploratory PD markers of IM156, and evaluations of any potential relationship between putative biomarkers and safety/efficacy parameters of IM156. The study was conducted in accordance with Good Clinical Practice, the International Council for Harmonisation, and guidelines governing clinical study conduct and the ethical principles originating from the Declaration of Helsinki. The study was approved by each Institutional Review Board and patients provided written informed consent. Patients were enrolled at three sites in South Korea.
The initial dose and schedule of IM156 was chosen based on animal toxicology studies. […] IM156 was administered in the fasted state, with no food for at least 2 h before and 1 h after dosing.
Three DLT-evaluable patients were enrolled at each dose level. If there were no DLTs or other prohibitive adverse events (AEs), the Safety Committee was allowed to recommend escalation to the next highest dose level. If 1 DLT occurred in the first 3 DLT-evaluable patients, enrollment in that cohort was expanded to an additional 3 DLT-evaluable patients; if ≥ 2 DLTs were reported in a cohort, that dose was considered above the MTD.
Safety was assessed through vital signs, weight, laboratory assessments, physical examinations, electrocardiogram, and reporting of AEs as graded by the National Cancer Institute’s Common Terminology Criteria for Adverse Events v4.03 (NCI-CTCAE).
DLTs were defined as the following AEs if they were attributed as related to IM156: asymptomatic grade 4 neutropenia lasting for ≥ 5 days; febrile neutropenia, regardless of grade; grade 4 thrombocytopenia or grade 3 thrombocytopenia with bleeding; any grade ≥ 3 non-hematologic AE (except grade 3 hypertension and grade 3 nausea, vomiting or diarrhea for which proper measures for prevention and treatment were not implemented, and alopecia); blood lactate levels > 5 mmol; grade ≥ 2 AE prohibiting dosing of IM156 for ≥ 21 continuous days except for alterations in serum calcium or phosphorus levels. The safety analysis includes all patients who received at least one dose of study drug.
The safety population was defined as all patients who received at least one dose of IM156. The PK population was not defined in the protocol but included all patients with sufficient PK data to perform adequate PK modeling. The efficacy population included all patients who underwent at least one tumor imaging assessment while receiving IM156. Safety was assessed using descriptive statistics (e.g., DLTs, AEs, laboratory tests, physical examination, 12-lead ECG). The incidence and number of events were reported for the DLTs observed in Cycle 1 per dose group. […] Adverse events and TRAEs were standardized with the System Organ Class and the Preferred Term using the Medical Dictionary for Regulatory Activities v23.0. In addition, TEAEs, serious adverse events (SAEs), TEAE severity, and TEAEs leading to withdrawal were presented by dose group. Efficacy data were to be presented by Waterfall and Swim Lane plots. Time to event endpoints (e.g., DoR, PFS) were determined using Kaplan–Meier estimations with the median value for each endpoint summarized.

[1] = DL4 800 mg orally every other day (n=3)
[2] = DL5 1200 mg orally every other day (n=3)

NC(=Nc1ccc(OC(F)(F)F)cc1)N=C(N)N1CCCC1 [IM156]
TEAE Anaemia grade 4 [1]: 0 | TEAE Appendicitis perforated grade 1 [1]: 0 | TEAE Appendicitis perforated grade 2 [1]: 0 | TEAE Appendicitis perforated grade 3 [1]: 0 | TEAE Appendicitis perforated grade 4 [1]: 0 | TEAE Back pain grade 1 [1]: 0 | TEAE Back pain grade 2 [1]: 2 | TEAE Back pain grade 3 [1]: 0 | TEAE Back pain grade 4 [1]: 0 | TEAE Cystitis grade 1 [1]: 0 | TEAE Cystitis grade 2 [1]: 1 | TEAE Cystitis grade 3 [1]: 0 | TEAE Cystitis grade 4 [1]: 0 | TEAE Dry skin grade 1 [1]: 0 | TEAE Dry skin grade 2 [1]: 0 | TEAE Dry skin grade 3 [1]: 0 | TEAE Dry skin grade 4 [1]: 0 | TEAE Flank pain grade 1 [1]: 0 | TEAE Flank pain grade 2 [1]: 0 | TEAE Flank pain grade 3 [1]: 0 | TEAE Flank pain grade 4 [1]: 0 | TEAE Hypertension grade 1 [1]: 0 | TEAE Hypertension grade 2 [1]: 0 | TEAE Hypertension grade 3 [1]: 0 | TEAE Hypertension grade 4 [1]: 0 | TEAE Hypotension grade 1 [1]: 0 | TEAE Hypotension grade 2 [1]: 0 | TEAE Hypotension grade 3 [1]: 0 | TEAE Hypotension grade 4 [1]: 0 | TEAE Insomnia grade 1 [1]: 0 | TEAE Insomnia grade 2 [1]: 0 | TEAE Insomnia grade 3 [1]: 0 | TEAE Insomnia grade 4 [1]: 0 | TEAE Pain in extremity grade 1 [1]: 0 | TEAE Pain in extremity grade 2 [1]: 1 | TEAE Pain in extremity grade 3 [1]: 0 | TEAE Pain in extremity grade 4 [1]: 0 | TEAE Pruritus grade 1 [1]: 0 | TEAE Pruritus grade 2 [1]: 0 | TEAE Pruritus grade 3 [1]: 0 | TEAE Pruritus grade 4 [1]: 0 | TEAE Psychiatric disorders grade 1 [1]: 0 | TEAE Psychiatric disorders grade 2 [1]: 0 | TEAE Psychiatric disorders grade 3 [1]: 0 | TEAE Psychiatric disorders grade 4 [1]: 0 | TEAE Purpura grade 1 [1]: 0 | TEAE Purpura grade 2 [1]: 0 | TEAE Purpura grade 3 [1]: 0 | TEAE Purpura grade 4 [1]: 0 | TEAE Urinary retention grade 1 [1]: 0 | TEAE Urinary retention grade 2 [1]: 1 | TEAE Urinary retention grade 3 [1]: 0 | TEAE Urinary retention grade 4 [1]: 0 | TEAE Urinary tract disorder grade 1 [1]: 0 | TEAE Urinary tract disorder grade 2 [1]: 0 | TEAE Urinary tract disorder grade 3 [1]: 0 | TEAE Urinary tract disorder grade 4 [1]: 0 | TEAE Abdominal pain, grade 1 (DL5 1200 mg QOD (n=3)): 1 | TEAE Alanine aminotransferase increased, grade 3 (DL5 1200 mg QOD (n=3)): 1 | TEAE Aspartate aminotransferase increased, grade 2 (DL5 1200 mg QOD (n=3)): 1 | TEAE Aspartate aminotransferase increased, grade 3 (DL5 1200 mg QOD (n=3)): 1 | TEAE Asthenia, grade 1 (DL5 1200 mg QOD (n=3)): 1 | TEAE Blood alkaline phosphatase increased, grade 2 (DL5 1200 mg QOD (n=3)): 1 | TEAE Blood alkaline phosphatase increased, grade 3 (DL5 1200 mg QOD (n=3)): 1 | TEAE Constipation, grade 1 (DL5 1200 mg QOD (n=3)): 1 | TEAE Decreased appetite, grade 1 (DL5 1200 mg QOD (n=3)): 1 | TEAE Diarrhoea, grade 1 (DL5 1200 mg QOD (n=3)): 1 | TEAE Diarrhoea, grade 2 (DL5 1200 mg QOD (n=3)): 1 | TEAE Fatigue, grade 2 (DL5 1200 mg QOD (n=3)): 1 | TEAE Gamma-glutamyltransferase increased, grade 2 (DL5 1200 mg QOD (n=3)): 1 | TEAE Gamma-glutamyltransferase increased, grade 3 (DL5 1200 mg QOD (n=3)): 1 | TEAE Headache, grade 1 (DL5 1200 mg QOD (n=3)): 1 | TEAE Hypoalbuminaemia, grade 2 (DL5 1200 mg QOD (n=3)): 1 | TEAE Hypocalcemia, grade 2 (DL5 1200 mg QOD (n=3)): 1 | TEAE Nausea, grade 1 (DL5 1200 mg QOD (n=3)): 1 | TEAE Nausea, grade 3 (DL5 1200 mg QOD (n=3)): 1 | TEAE Oropharyngeal pain, grade 1 (DL5 1200 mg QOD (n=3)): 1 | TEAE Pyrexia, grade 1 (DL5 1200 mg QOD (n=3)): 1 | TEAE Vomiting, grade 1 (DL5 1200 mg QOD (n=3)): 1 | TEAE Vomiting, grade 2 (DL5 1200 mg QOD (n=3)): 1 | TRAE Abdominal Pain, > G3 (patients) (DL5 1,200 mg QOD oral, N = 3): 0 | TRAE Abdominal Pain, All grades (patients) (DL5 1,200 mg QOD oral, N = 3): 0 | TRAE Blood Lactic Acid increased, > G3 (patients) (DL5 1,200 mg QOD oral, N = 3): 0 | TRAE Blood Lactic Acid increased, All grades (patients) (DL5 1,200 mg QOD oral, N = 3): 0 | TRAE Constipation, > G3 (patients) (DL5 1,200 mg QOD oral, N = 3): 0 | TRAE Constipation, All grades (patients) (DL5 1,200 mg QOD oral, N = 3): 0 | TRAE Decreased appetite, > G3 (patients) (DL5 1,200 mg QOD oral, N = 3): 0 | TRAE Decreased appetite, All grades (patients) (DL5 1,200 mg QOD oral, N = 3): 1 | TRAE Diarrhoea, > G3 (patients) (DL5 1,200 mg QOD oral, N = 3): 0 | TRAE Diarrhoea, All grades (patients) (DL5 1,200 mg QOD oral, N = 3): 2 | TRAE Fatigue, > G3 (patients) (DL5 1,200 mg QOD oral, N = 3): 0 | TRAE Fatigue, All grades (patients) (DL5 1,200 mg QOD oral, N = 3): 0 | TRAE Insomnia, > G3 (patients) (DL5 1,200 mg QOD oral, N = 3): 0 | TRAE Insomnia, All grades (patients) (DL5 1,200 mg QOD oral, N = 3): 0 | TRAE Nausea, > G3 (patients) (DL5 1,200 mg QOD oral, N = 3): 1 | TRAE Nausea, All grades (patients) (DL5 1,200 mg QOD oral, N = 3): 2 | TRAE Vomiting, > G3 (patients) (DL5 1,200 mg QOD oral, N = 3): 0 | TRAE Vomiting, All grades (patients) (DL5 1,200 mg QOD oral, N = 3): 2 | TEAE Adrenal insufficiency grade 1 [2]: 0 | TEAE Adrenal insufficiency grade 2 [2]: 1 | TEAE Adrenal insufficiency grade 3 [2]: 0 | TEAE Adrenal insufficiency grade 4 [2]: 0 | TEAE Anaemia grade 1 [2]: 0 | TEAE Anaemia grade 2 [2]: 0 | TEAE Anaemia grade 3 [2]: 1 | TEAE Anaemia grade 4 [2]: 0 | TEAE Appendicitis perforated grade 1 [2]: 0 | TEAE Appendicitis perforated grade 2 [2]: 0 | TEAE Appendicitis perforated grade 3 [2]: 0 | TEAE Appendicitis perforated grade 4 [2]: 0 | TEAE Back pain grade 1 [2]: 0 | TEAE Back pain grade 2 [2]: 0 | TEAE Back pain grade 3 [2]: 0 | TEAE Back pain grade 4 [2]: 0 | TEAE Cystitis grade 1 [2]: 0 | TEAE Cystitis grade 2 [2]: 0 | TEAE Cystitis grade 3 [2]: 0 | TEAE Cystitis grade 4 [2]: 0
